Here are results for 37 molecules from patent US20260125375A1 (Pfizer Inc., priority 2022, published 2026).

This experiment addresses T1, CBL-B (residues 36-427) (Homo sapiens, UniProt Q13191).
T1 construct: Purified CBL-B (residues 36-427) and C-CBL (residues 46-435) proteins from baculovirus-infected insect cells; made in house; host or cells: baculovirus-infected insect cells
As to the kind of experiment: Ligand Displacement Assay (LDA), HTRF competitive binding against BODIPY-labeled fluorescent tracer, CBL-B. The following applies: geometric mean of the number of tests, read-out: CBL-B Ki (nM) GMean. The gist of the method: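 Competition with a BODIPY fluorescent tracer was read by HTRF, each protein carrying an N-terminal biotinylated AviTag bound to Tb-streptavidin. Tracer KD values were set beforehand per protein; Ki derives from duplicate three-fold compound series ([…], 2% DMSO), averaged geometrically across tests.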
Background: TR-FRET usually uses a lanthanide donor and a delayed reading to cut background.
With `CC(c1nc(C(F)(F)F)cc2c(-c3cccc(C4(Cc5nncn5C)COC4)c3)n[nH]c12)N1CCC[C@H](C)C1` (single isomer, unassigned) [Example C19], the inhibition constant (Ki) was 10.8 nM.

For the molecule `C[C@@H](c1nc(C(F)(F)F)cc2c(-c3cccc(C4(Cc5nncn5C)COC4)c3)n[nH]c12)N1CCC(F)(F)C1` (single isomer, unassigned) [Example D5], the Ki came to 32.7 nM.

Turning to `C[C@H](c1nc(C(F)(F)F)cc2c(-c3cccc(C4(Cc5nncn5C)COC4)c3)n[nH]c12)N1C[C@H](F)[C@@H](F)C1` (single isomer, unassigned) [Example D8], the inhibition constant (Ki) was 25.4 nM. Regarding `C[C@H](NC1CC[C@H]1O)c1nc(C(F)(F)F)cc2c(-c3cccc([C@H](c4nncn4C)C4CCC4)c3)n[nH]c12` (single isomer, unassigned) [Example D30], the Ki was 0.6 nM. As for `C[C@H](NC1CCC1)c1nc(C(F)(F)F)cc2c(-c3cccc(C4(Cc5nncn5C)COC4)c3)n[nH]c12` [Example F1, N-{(1S)-1-[3-(3-{3-[(4-methyl-4H-1,2,4-triazol-3-yl)methyl]oxetan-3-yl}phenyl)-5-(trifluoromethyl)-1H-pyrazolo[3,4-c]pyridin-7-yl]ethyl}cyclobutanamine], the figure is 1.3 nM; as for `C[C@@H](N[C@H]1C[C@@H](F)C1)c1nc(C(F)(F)F)cc2c(-c3cccc([C@H](c4nncn4C)C4CCC4)c3)n[nH]c12` (single isomer, unassigned) [Example C96], 9.2 nM; as for `C[C@H](c1nc(C(F)(F)F)cc2c(-c3cccc(C4(Cc5nncn5C)COC4)c3)n[nH]c12)N1C[C@@H](F)[C@H](F)C1` (single isomer, unassigned) [Example C26], 40.5 nM. With `C[C@H](N[C@@H]1CCOC1)c1nc(C(F)(F)F)cc2c(-c3cccc([C@H](c4nncn4C)C4CCC4)c3)n[nH]c12` (single isomer, unassigned) [Example D2], the Ki is 5.8 nM.

Regarding `C[C@@H](N[C@H]1C[C@@H](O)C1)c1nc(C(F)(F)F)cc2c(-c3cccc([C@H](c4nncn4C)C4CCC4)c3)n[nH]c12` (single isomer, unassigned) [Example C37], the Ki worked out at 5.3 nM. For `C[C@H](N[C@H]1CCC[C@@H]1O)c1nc(C(F)(F)F)cc2c(-c3cccc([C@H](c4nncn4C)C4CCC4)c3)n[nH]c12` (single isomer, unassigned) [Example C47], the Ki came out at 0.7 nM.

For the molecule `CC(c1nc(C(F)(F)F)cc2c(-c3cccc(C4(Cc5nncn5C)COC4)c3)n[nH]c12)N1CCOCC1` (single isomer, unassigned) [Example C24, 3-(3-{3-[(4-methyl-4H-1,2,4-triazol-3-yl)methyl]oxetan-3-yl}phenyl)-7-[(1ξ)-1-(morpholin-4-yl)ethyl]-5-(trifluoromethyl)-1H-pyrazolo[3,4-c]pyridine], the Ki was found to be 28.3 nM. As for `C[C@H](N[C@H]1C[C@@H](F)C1)c1nc(C(F)(F)F)cc2c(-c3cccc([C@H](c4nncn4C)C4CCC4)c3)n[nH]c12` (single isomer, unassigned) [Example C95], the Ki is 4.7 nM. Take `Cn1cnnc1[C@@H](c1cccc(-c2n[nH]c3c(CN[C@H]4CCOC4)nc(C(F)(F)F)cc23)c1)C1CCC1` [Example D1, (3S)—N-{[3-{3-[(R)-cyclobutyl(4-methyl-4H-1,2,4-triazol-3-yl)methyl]phenyl}-5-(trifluoromethyl)-1H-pyrazolo[3,4-c]pyridin-7-yl]methyl}oxolan-3-amine]: the Ki came to 22.4 nM. As for `Cn1cnnc1CC1(c2cccc(-c3n[nH]c4c(CN5CCCCC5)nc(C(F)(F)F)cc34)c2)COC1` [Example C33, 3-(3-{3-[(4-methyl-4H-1,2,4-triazol-3-yl)methyl]oxetan-3-yl}phenyl)-7-[(piperidin-1-yl)methyl]-5-(trifluoromethyl)-1H-pyrazolo[3,4-c]pyridine], the figure is 22.6 nM; as for `C[C@@H](NC1CCC1)c1nc(C(F)(F)F)cc2c(-c3cccc(C4(Cc5nncn5C)COC4)c3)n[nH]c12` [Example C16], 10 nM; as for `C[C@@H](c1nc(C(F)(F)F)cc2c(-c3cccc(C4(Cc5nncn5C)COC4)c3)n[nH]c12)N1C[C@H](F)[C@@H](F)C1` (single isomer, unassigned) [Example D7], 7.4 nM.

Regarding `CC(C)NC(C)c1nc(C(F)(F)F)cc2c(-c3cccc([C@H](c4nncn4C)C4CCC4)c3)n[nH]c12` (single isomer, unassigned) [Example C34], the Ki was determined as 8.9 nM.

As to `CC(c1nc(C(F)(F)F)cc2c(-c3cccc(C4(Cc5nncn5C)COC4)c3)n[nH]c12)N1CCOCC1` (single isomer, unassigned) [Example C23, 3-(3-{3-[(4-methyl-4H-1,2,4-triazol-3-yl)methyl]oxetan-3-yl}phenyl)-7-[(1ξ)-1-(morpholin-4-yl)ethyl]-5-(trifluoromethyl)-1H-pyrazolo[3,4-c]pyridine], the Ki came out at 5.7 nM.

For `C[C@@H]1CCCN([C@H](C)c2nc(C(F)(F)F)cc3c(-c4cccc(C5(Cc6nncn6C)COC5)c4)n[nH]c23)C1` (single isomer, unassigned) [Example D14], the Ki is 42.9 nM.

In the case of `CC(c1nc(C(F)(F)F)cc2c(-c3cccc(C4(Cc5nncn5C)COC4)c3)n[nH]c12)N1CCC[C@H](C)C1` (single isomer, unassigned) [Example C20], the Ki was 2.4 nM. Take `CC(C)NC(C)c1nc(C(F)(F)F)cc2c(-c3cccc([C@H](c4nncn4C)C4CCC4)c3)n[nH]c12` (single isomer, unassigned) [Example C35]: the Ki came to 3.1 nM. As for `CCNC(C)c1nc(C(F)(F)F)cc2c(-c3cccc([C@H](c4nncn4C)C4CCC4)c3)n[nH]c12` (single isomer, unassigned) [Example C89], the Ki came out at 8 nM.

In the case of `C[C@H](N)c1nc(C(F)(F)F)cc2c(-c3cccc([C@H](c4nncn4C)C4CCC4)c3)n[nH]c12` [Example K12, (1S)-1-[3-{3-[(R)-cyclobutyl(4-methyl-4H-1,2,4-triazol-3-yl)methyl]phenyl}-5-(trifluoromethyl)-1H-pyrazolo[3,4-c]pyridin-7-yl]ethan-1-amine], the Ki turned out to be 19.3 nM. As to `C[C@@H](NC1CCCC1)c1nc(C(F)(F)F)cc2c(-c3cccc(C4(Cc5nncn5C)COC4)c3)n[nH]c12` (single isomer, unassigned) [Example C15], the Ki was 8.9 nM. Take `C[C@H](c1nc(C(F)(F)F)cc2c(-c3cccc(C4(Cc5nncn5C)COC4)c3)n[nH]c12)N1CCC(F)(F)C1` (single isomer, unassigned) [Example D6]: the Ki was 4.6 nM. On to `Cn1cnnc1[C@@H](c1cccc(-c2n[nH]c3c(CN[C@H]4CCC(F)(F)C4)nc(C(F)(F)F)cc23)c1)C1CCC1` (single isomer, unassigned) [Example G1], for which the Ki is 11 nM.

Turning to `C[C@H](NC1CC(F)(F)C1)c1nc(C(F)(F)F)cc2c(-c3cccc([C@H](c4nncn4C)C4CCC4)c3)n[nH]c12` (single isomer, unassigned) [Example D90], the inhibitory constant (Ki) stood at 8.9 nM. Consider `C[C@H](c1nc(C(F)(F)F)cc2c(-c3cccc(C4(Cc5nncn5C)COC4)c3)n[nH]c12)N1CC[C@@H](F)C1` (single isomer, unassigned) [Example D10], for which the Ki came to 6.6 nM. Take `CC(c1nc(C(F)(F)F)cc2c(-c3cccc(C4(Cc5nncn5C)COC4)c3)n[nH]c12)N1C[C@@H](F)[C@H](F)C1` (single isomer, unassigned) [Example C25]: the Ki came out at 6.5 nM. As for `C[C@@H](N[C@H]1CCC(F)(F)C1)c1nc(C(F)(F)F)cc2c(-c3cccc(C4(Cc5nncn5C)COC4)c3)n[nH]c12` (single isomer, unassigned) [Example C13], the figure is 2.3 nM; as for `C[C@@H]1CCCN([C@@H](C)c2nc(C(F)(F)F)cc3c(-c4cccc(C5(Cc6nncn6C)COC5)c4)n[nH]c23)C1` (single isomer, unassigned) [Example D13], 15 nM.

Turning to `CC(NC1CCCC1)c1nc(C(F)(F)F)cc2c(-c3cccc([C@H](c4nncn4C)C4CCC4)c3)n[nH]c12` (stereo partly drawn) [Example C14, N-{(1ξ)-1-[3-{3-[(R)-cyclobutyl(4-methyl-4H-1,2,4-triazol-3-yl)methyl]phenyl}-5-(trifluoromethyl)-1H-pyrazolo[3,4-c]cyclopen-7-yl]ethyl}cyclopentanamine], the Ki was 0.4 nM. Take `C[C@H](N[C@@H]1CCC(F)(F)C1)c1nc(C(F)(F)F)cc2c(-c3cccc(C4(Cc5nncn5C)COC4)c3)n[nH]c12` (single isomer, unassigned) [Example C17]: the Ki was determined as 4 nM.

On to `CC(NC1CNC1)c1nc(C(F)(F)F)cc2c(-c3cccc(C4(Cc5nncn5C)COC4)c3)n[nH]c12` (single isomer, unassigned) [Example C28, N-{(1ξ)-1-[3-(3-{3-[(4-methyl-4H-1,2,4-triazol-3-yl)methyl]oxetan-3-yl}phenyl)-5-(trifluoromethyl)-1H-pyrazolo[3,4-c]pyridin-7-yl]ethyl}azetidin-3-amine], for which the Ki turned out to be 33.4 nM.

For the molecule `Cn1cnnc1CC1(c2cccc(-c3n[nH]c4cnc(C(F)(F)F)cc34)c2)COC1` [Example B1, 3-(3-(3-((4-methyl-4H-1,2,4-triazol-3-yl)methyl)oxetan-3-yl)phenyl)-5-(trifluoromethyl)-1H-pyrazolo[3,4-c]pyridine], the inhibition constant Ki is 62.7 nM. On to `C[C@H](N[C@@H]1CCC[C@@H]1O)c1nc(C(F)(F)F)cc2c(-c3cccc([C@H](c4nncn4C)C4CCC4)c3)n[nH]c12` (single isomer, unassigned) [Example D15], for which the Ki was 0.9 nM. With `C[C@H](O)CN[C@@H](C)c1nc(C(F)(F)F)cc2c(-c3cccc([C@H](c4nncn4C)C4CCC4)c3)n[nH]c12` (single isomer, unassigned) [Example D19], the Ki came to 1 nM.

As a reminder, the Ki is the dissociation constant of the complex between target and ligand, obtained from inhibition or displacement.
